Experimental data reported in BigSolDB 2.1.

COC(=O)Nc1ccc(C)c(NC(=O)OC)c1
Details | solubility (mole fraction)
in di(2-ethylhexyl) phthalate, 334.25 K | 0.167
in di(2-ethylhexyl) phthalate, 346.95 K | 0.172
in di(2-ethylhexyl) phthalate, 363.65 K | 0.178
in di(2-ethylhexyl) phthalate, 378.65 K | 0.186
in di(2-ethylhexyl) phthalate, 389.55 K | 0.195
in di(2-ethylhexyl) phthalate, 398.15 K | 0.2
in dimethyl carbonate, 307.75 K | 0.0087
in dimethyl carbonate, 316.15 K | 0.013
in dimethyl carbonate, 324.35 K | 0.0173
in dimethyl carbonate, 330.65 K | 0.0216
in dimethyl carbonate, 335.85 K | 0.0258
in dimethyl carbonate, 339.35 K | 0.0299
in dimethyl carbonate, 343.65 K | 0.0341
in dimethyl carbonate, 353.15 K | 0.0423
in dimethyl carbonate, 360.75 K | 0.0503
in dimethyl carbonate, 365.15 K | 0.0535

Cc1ccc(N)cc1N
Details | solubility (mole fraction)
in di(2-ethylhexyl) phthalate, 312.45 K | 0.061
in di(2-ethylhexyl) phthalate, 324.25 K | 0.075
in di(2-ethylhexyl) phthalate, 332.52 K | 0.0871
in di(2-ethylhexyl) phthalate, 340.05 K | 0.0972
in di(2-ethylhexyl) phthalate, 349.75 K | 0.108
in di(2-ethylhexyl) phthalate, 361.55 K | 0.127
in dimethyl carbonate, 305.75 K | 0.107
in dimethyl carbonate, 310.05 K | 0.113
in dimethyl carbonate, 312.85 K | 0.116
in dimethyl carbonate, 316.55 K | 0.118
in dimethyl carbonate, 317.45 K | 0.121
in dimethyl carbonate, 321.35 K | 0.124
in dimethyl carbonate, 327.35 K | 0.126
in dimethyl carbonate, 333.45 K | 0.129

COC(=O)Nc1ccc(C)c(N)c1
Details | solubility (mole fraction)
in di(2-ethylhexyl) phthalate, 326.55 K | 0.032
in di(2-ethylhexyl) phthalate, 333.75 K | 0.0422
in di(2-ethylhexyl) phthalate, 341.65 K | 0.0522
in di(2-ethylhexyl) phthalate, 349.95 K | 0.062
in di(2-ethylhexyl) phthalate, 363.55 K | 0.081
in di(2-ethylhexyl) phthalate, 391.85 K | 0.0992
in dimethyl carbonate, 306.35 K | 0.0339
in dimethyl carbonate, 314.25 K | 0.0446
in dimethyl carbonate, 316.75 K | 0.0499
in dimethyl carbonate, 320.65 K | 0.0552
in dimethyl carbonate, 323.45 K | 0.0604
in dimethyl carbonate, 328.25 K | 0.0655
in dimethyl carbonate, 334.45 K | 0.0706
in dimethyl carbonate, 341.85 K | 0.0756
